Our source for the IC50, Dmax and DC50 values is patent publication US12139492B2 (Endotarget Inc., priority 2021, dated 2024).

What is called Dmax is the largest share of the target that was removed. A higher Dmax goes with a fuller loss of target. As usually defined, the DC50 is the concentration giving 50% degradation. Higher therefore signals degradation only at high concentration.

Common to all, as to type: cell-based
One experiment deals with Mino cells. Briefly: Antiproliferative effect, MTS cell viability assay, Mino cells. The following applies: Homo sapiens, MINO, Mino mantle cell lymphoma cells; read-out: IC50 (anti-proliferation) Mino cells. In a few lines:
(§1)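 Steps: seed B-cell lymphoma line; add compound at 0, 0.001, 0.01, 0.1, 1 or 10 μM; incubate 72 h; add MTS and read reduced tetrazolium (formazan) absorbance at 490 nm.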
(In general: Formazan colour is commonly taken as a measure of viable cells.)

In the next experiment the test system is JeKo-1 cells. Briefly: Antiproliferative effect, MTS cell viability assay, JeKo-1 cells. Conditions: Homo sapiens; JeKo-1 mantle cell lymphoma cells; read-out: IC50 (anti-proliferation) JeKO-1 cells. In a few lines: as §1
A further experiment deals with BTK (Homo sapiens, UniProt Q06187). The experiment is described as follows: BTK degradation, DC50 and Dmax of Table 1 (cell line not given). Conditions: for DC50: concentration giving 50% reduction of BTK expression level. More on the design: endogenous in cells.
Chain of BTK (Q06187 whole entry): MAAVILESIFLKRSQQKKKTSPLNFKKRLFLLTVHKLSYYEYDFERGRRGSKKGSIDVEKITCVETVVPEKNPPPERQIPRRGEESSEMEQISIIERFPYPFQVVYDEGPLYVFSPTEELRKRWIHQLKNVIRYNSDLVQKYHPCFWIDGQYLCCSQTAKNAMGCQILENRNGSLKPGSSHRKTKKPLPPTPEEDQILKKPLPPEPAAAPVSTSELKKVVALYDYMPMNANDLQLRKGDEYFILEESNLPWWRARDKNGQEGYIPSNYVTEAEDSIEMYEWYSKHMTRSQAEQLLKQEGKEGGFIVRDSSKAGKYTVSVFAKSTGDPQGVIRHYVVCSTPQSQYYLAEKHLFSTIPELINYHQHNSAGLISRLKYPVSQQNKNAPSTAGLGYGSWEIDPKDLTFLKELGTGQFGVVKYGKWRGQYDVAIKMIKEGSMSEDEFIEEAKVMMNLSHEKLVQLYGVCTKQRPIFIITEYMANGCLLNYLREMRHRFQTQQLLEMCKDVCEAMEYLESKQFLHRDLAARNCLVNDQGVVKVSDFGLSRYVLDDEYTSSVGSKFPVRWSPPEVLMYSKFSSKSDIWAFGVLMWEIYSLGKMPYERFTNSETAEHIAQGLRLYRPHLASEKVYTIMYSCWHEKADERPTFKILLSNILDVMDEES

`Nc1ncnc2c1c(-c1ccc(Oc3ccccc3)cc1)nn2C1CCN(C(=O)N2CCN(CCCC3CCN(c4ccc5c(c4)CN(C4CCC(=O)NC4=O)C5=O)CC3)CC2)CC1` (stereo not shown) [Compound 122, 3-(5-(4-(3-(4-(4-(4-amino-3-(4-phenoxyphenyl)-1H-pyrazolo[3,4-d]pyrimidin-1-yl)piperidine-1-carbonyl)piperazin-1-yl)propyl)piperidin-1-yl)-1-oxoisoindolin-2-yl)piperidine-2,6-dione]: the IC50 in the experiment on Mino cells fell in the range of 1000 to 10000 nM. In addition, the IC50 in the experiment with JeKo-1 cells lay within 1000 to 10000 nM. At BTK, the greatest degradation seen (Dmax) was > 75% and the DC50 was > 50 nM.
As to `Nc1ncnc2c1c(-c1ccc(Oc3ccccc3)cc1)nn2C1CCN(C(=O)N2CCN(CCCN3CCC(c4ccc5c(c4)C(=O)N(C4CCC(=O)NC4=O)C5=O)CC3)CC2)CC1` (stereo not shown) [Compound 123, 5-(1-(3-(4-(4-(4-amino-3-(4-phenoxyphenyl)-1H-pyrazolo[3,4-d]pyrimidin-1-yl)piperidine-1-carbonyl)piperazin-1-yl)propyl)piperidin-4-yl)-2-(2,6-dioxopiperidin-3-yl)isoindoline-1,3-dione], the IC50 in the experiment on Mino cells fell in the range of 1000 to 10000 nM. Further, the IC50 in the experiment with JeKo-1 cells lay within 1000 to 10000 nM. Further, on BTK, the maximal degradation (Dmax) is > 75% and the DC50 was > 50 nM.
As to `Nc1ncnc2c1c(-c1ccc(Oc3ccccc3)cc1)nn2C1CCN(C(=O)N2CCN(CCCN3CCC(c4ccc5c(c4)CN(C4CCC(=O)NC4=O)C5=O)CC3)CC2)CC1` (stereo not shown) [Compound 124, 3-(5-(1-(3-(4-(4-(4-amino-3-(4-phenoxyphenyl)-1H-pyrazolo[3,4-d]pyrimidin-1-yl)piperidine-1-carbonyl)piperazin-1-yl)propyl)piperidin-4-yl)-1-oxoisoindolin-2-yl)piperidine-2,6-dione], the IC50 in the experiment on Mino cells was > 10000 nM. For the same compound, the IC50 with JeKo-1 cells was > 10000 nM. On BTK, the Dmax was > 90% and the DC50 was > 50 nM.
As to `Nc1ncnc2c1c(-c1ccc(Oc3ccccc3)cc1)nn2C1CCN(C(=O)N2CCC(CCCC3CCN(c4ccc5c(c4)C(=O)N(C4CCC(=O)NC4=O)C5=O)CC3)CC2)CC1` (stereo not shown) [Compound 125, 5-(4-(3-(1-(4-(4-amino-3-(4-phenoxyphenyl)-1H-pyrazolo[3,4-d]pyrimidin-1-yl)piperidine-1-carbonyl)piperidin-4-yl)propyl)piperidin-1-yl)-2-(2,6-dioxopiperidin-3-yl)isoindoline-1,3-dione], the results for the IC50 in the experiment with Mino cells and in the experiment with JeKo-1 cells were > 10000 nM and 1000 to 10000 nM, respectively. Besides, the greatest degradation seen (Dmax) on BTK is > 90%. The DC50 at BTK is > 50 nM.
The like results for `Nc1ncnc2c1c(-c1ccc(Oc3ccccc3)cc1)nn2C1CCN(C(=O)N2CCC(CCCC3CCN(c4ccc5c(c4)CN(C4CCC(=O)NC4=O)C5=O)CC3)CC2)CC1` (stereo not shown) [Compound 126, 3-(5-(4-(3-(1-(4-(4-amino-3-(4-phenoxyphenyl)-1H-pyrazolo[3,4-d]pyrimidin-1-yl)piperidine-1-carbonyl)piperidin-4-yl)propyl)piperidin-1-yl)-1-oxoisoindolin-2-yl)piperidine-2,6-dione] were, in that order, 1000 to 10000 nM, > 10000 nM, > 90% and > 50 nM.
The like results for `Nc1ncnc2c1c(-c1ccc(Oc3ccccc3)cc1)nn2C1CCN(C(=O)N2CCC(CCCN3CCC(c4ccc5c(c4)C(=O)N(C4CCC(=O)NC4=O)C5=O)CC3)CC2)CC1` (stereo not shown) [Compound 127, 5-(1-(3-(1-(4-(4-amino-3-(4-phenoxyphenyl)-1H-pyrazolo[3,4-d]pyrimidin-1-yl)piperidine-1-carbonyl)piperidin-4-yl)propyl)piperidin-4-yl)-2-(2,6-dioxopiperidin-3-yl)isoindoline-1,3-dione] were, in that order, 1000 to 10000 nM, > 10000 nM, > 90% and > 50 nM.
The corresponding values for `Nc1ncnc2c1c(-c1ccc(Oc3ccccc3)cc1)nn2C1CCN(C(=O)N2CCC(CCCN3CCC(c4ccc5c(c4)CN(C4CCC(=O)NC4=O)C5=O)CC3)CC2)CC1` (stereo not shown) [Compound 128, 3-(5-(1-(3-(1-(4-(4-amino-3-(4-phenoxyphenyl)-1H-pyrazolo[3,4-d]pyrimidin-1-yl)piperidine-1-carbonyl)piperidin-4-yl)propyl)piperidin-4-yl)-1-oxoisoindolin-2-yl)piperidine-2,6-dione] are 1000 to 10000 nM, > 10000 nM, > 90% and > 50 nM.
For `Nc1ncnc2c1c(-c1ccc(Oc3ccccc3)cc1)nn2[C@@H]1CCCN(CC2CCN(CC3CCN(c4ccc5c(c4)C(=O)N(C4CCC(=O)NC4=O)C5=O)CC3)CC2)C1` (stereo partly drawn) [Compound 129, 5-(4-((4-(((R)-3-(4-amino-3-(4-phenoxyphenyl)-1H-pyrazolo[3,4-d]pyrimidin-1-yl)piperidin-1-yl)methyl)piperidin-1-yl)methyl)piperidin-1-yl)-2-(2,6-dioxopiperidin-3-yl)isoindoline-1,3-dione], in the experiment on Mino cells, the IC50 is > 10000 nM. The IC50 in the experiment on JeKo-1 cells is > 10000 nM. At BTK, the greatest degradation seen (Dmax) was > 75% and the DC50 is 10 to 50 nM.
As to `Nc1ncnc2c1c(-c1ccc(Oc3ccccc3)cc1)nn2[C@@H]1CCCN(CC2CCN(CC3CCN(c4ccc5c(c4)CN(C4CCC(=O)NC4=O)C5=O)CC3)CC2)C1` (stereo partly drawn) [Compound 130, 3-(5-(4-((4-(((R)-3-(4-amino-3-(4-phenoxyphenyl)-1H-pyrazolo[3,4-d]pyrimidin-1-yl)piperidin-1-yl)methyl)piperidin-1-yl)methyl)piperidin-1-yl)-1-oxoisoindolin-2-yl)piperidine-2,6-dione], in the experiment on Mino cells, the IC50 is 1000 to 10000 nM. The IC50 with JeKo-1 cells fell in the range of 1000 to 10000 nM. At BTK, the Dmax was > 90% and the DC50 was 10 to 50 nM.
Turning to `Nc1ncnc2c1c(-c1ccc(Oc3ccccc3)cc1)nn2[C@@H]1CCCN(CC2CCN(CCC3CCN(c4ccc5c(c4)C(=O)N(C4CCC(=O)NC4=O)C5=O)CC3)CC2)C1` (stereo partly shown) [Compound 131], the IC50 in the experiment on Mino cells lay within 1000 to 10000 nM. Moreover, in the experiment on JeKo-1 cells, the IC50 was 1000 to 10000 nM. On BTK, the Dmax is > 75% and the DC50 fell in the range of 10 to 50 nM.
For `Nc1ncnc2c1c(-c1ccc(Oc3ccccc3)cc1)nn2[C@@H]1CCCN(CC2CCN(CCC3CCN(c4ccc5c(c4)CN(C4CCC(=O)NC4=O)C5=O)CC3)CC2)C1` (stereo partly drawn) [Compound 132, 3-(5-(4-(2-(4-(((R)-3-(4-amino-3-(4-phenoxyphenyl)-1H-pyrazolo[3,4-d]pyrimidin-1-yl)piperidin-1-yl)methyl)piperidin-1-yl)ethyl)piperidin-1-yl)-1-oxoisoindolin-2-yl)piperidine-2,6-dione], the IC50 with Mino cells and in the experiment with JeKo-1 cells was 1000 to 10000 nM throughout. Also, the Dmax at BTK is > 90%. This compound showed a DC50 on BTK of 10 to 50 nM.
As for `Nc1ncnc2c1c(-c1ccc(Oc3ccccc3)cc1)nn2[C@@H]1CCCN(CC2CCN(CCN3CCN(c4ccc5c(c4)C(=O)N(C4CCC(=O)NC4=O)C5=O)CC3)CC2)C1` (stereo partly drawn) [Compound 133, 5-(4-(2-(4-(((R)-3-(4-amino-3-(4-phenoxyphenyl)-1H-pyrazolo[3,4-d]pyrimidin-1-yl)piperidin-1-yl)methyl)piperidin-1-yl)ethyl)piperazin-1-yl)-2-(2,6-dioxopiperidin-3-yl)isoindoline-1,3-dione], the IC50 with Mino cells is < 1000 nM. The IC50 in the experiment with JeKo-1 cells was 1000 to 10000 nM. On BTK, the Dmax was > 90% and the DC50 was in the range of 10 to 50 nM.
Consider `Nc1ncnc2c1c(-c1ccc(Oc3ccccc3)cc1)nn2[C@@H]1CCCN(CC2CCN(CCN3CCN(c4ccc5c(c4)CN(C4CCC(=O)NC4=O)C5=O)CC3)CC2)C1` (stereo partly drawn) [Compound 134, 3-(5-(4-(2-(4-(((R)-3-(4-amino-3-(4-phenoxyphenyl)-1H-pyrazolo[3,4-d]pyrimidin-1-yl)piperidin-1-yl)methyl)piperidin-1-yl)ethyl)piperazin-1-yl)-1-oxoisoindolin-2-yl)piperidine-2,6-dione], for which, in the experiment with Mino cells, the IC50 was 1000 to 10000 nM. In the experiment with JeKo-1 cells, the IC50 lay in the range of 1000 to 10000 nM. Also, on BTK, the Dmax was > 75% and the DC50 lay within 10 to 50 nM.
As to `Nc1ncnc2c1c(-c1ccc(Oc3ccccc3)cc1)nn2[C@@H]1CCCN(CC2CCN(CCN3CCC(c4ccc5c(c4)C(=O)N(C4CCC(=O)NC4=O)C5=O)CC3)CC2)C1` (stereo partly drawn) [Compound 135, 5-(1-(2-(4-(((R)-3-(4-amino-3-(4-phenoxyphenyl)-1H-pyrazolo[3,4-d]pyrimidin-1-yl)piperidin-1-yl)methyl)piperidin-1-yl)ethyl)piperidin-4-yl)-2-(2,6-dioxopiperidin-3-yl)isoindoline-1,3-dione], the IC50 in the experiment with Mino cells was < 1000 nM. The IC50 in the experiment with JeKo-1 cells was in the range of 1000 to 10000 nM. Also, at BTK, the greatest degradation seen (Dmax) was > 90% and the DC50 is < 10 nM.
The corresponding values for `Nc1ncnc2c1c(-c1ccc(Oc3ccccc3)cc1)nn2[C@@H]1CCCN(CC2CCN(CCN3CCC(c4ccc5c(c4)CN(C4CCC(=O)NC4=O)C5=O)CC3)CC2)C1` (stereo partly drawn) [Compound 136, 3-(5-(1-(2-(4-(((R)-3-(4-amino-3-(4-phenoxyphenyl)-1H-pyrazolo[3,4-d]pyrimidin-1-yl)piperidin-1-yl)methyl)piperidin-1-yl)ethyl)piperidin-4-yl)-1-oxoisoindolin-2-yl)piperidine-2,6-dione] are < 1000 nM, 1000 to 10000 nM, > 75% and < 10 nM.
The corresponding values for `Nc1ncnc2c1c(-c1ccc(Oc3ccccc3)cc1)nn2[C@@H]1CCCN(CC2CCN(CCCN3CCN(c4ccc5c(c4)C(=O)N(C4CCC(=O)NC4=O)C5=O)CC3)CC2)C1` (stereo partly drawn) [Compound 137, 5-(4-(3-(4-(((R)-3-(4-amino-3-(4-phenoxyphenyl)-1H-pyrazolo[3,4-d]pyrimidin-1-yl)piperidin-1-yl)methyl)piperidin-1-yl)propyl)piperazin-1-yl)-2-(2,6-dioxopiperidin-3-yl)isoindoline-1,3-dione] are > 10000 nM, > 10000 nM, > 75% and 10 to 50 nM.
